Test system: PBMC (polyclonal gluten-specific T cells) of paediatric and adult CD patients
Assay: IFN-γ ELISpot of PBMC after 3 day oral wheat challenge (SFU, % of maximal peptide response, dominance scores, EC50; Examples 5-6)
Assay type: cell-based, human
Details: for IFN-γ ELISpot response: after oral wheat challenge; for Cross-reactive T cell response: following wheat challenge
[1] = patient A, 11-17 yrs, cut-off 10 SFU
[2] = patient E, H, 11-17 yrs, cut-off 10 SFU
[3] = patient F, 11-17 yrs, cut-off 10 SFU
[4] = patient G, 11-17 yrs, cut-off 10 SFU
[5] = patient H (HLA-DQ2.5 homozygote), 3-5yrs, cut-off 10 SFU
[6] = patient H, 11-17 yrs, cut-off 10 SFU
[7] = patient ID not given, 11-17 yrs, cut-off 10 SFU
[8] = patient ID not given, max peptide 95 SFU
[9] = patient N, 3-5yrs, cut-off 10 SFU
[10] = patient P, 11-17 yrs, cut-off 21.6 SFU
[11] = patient Q, 11-17 yrs, cut-off 10 SFU
[12] = patient U, H, 11-17 yrs, cut-off 10 SFU
[13] = patient V, 6-10 yrs, cut-off 10 SFU
[14] = patient Y, 6-10 yrs, cut-off 10 SFU
[15] = patient eleven, 6-10 yrs, cut-off 10 SFU
[16] = patient eleven, max peptide 57 SFU
[17] = patient four, 3-5yrs, cut-off 10 SFU
[18] = patient seven, 6-10 yrs, cut-off 10.5 SFU
[19] = patient ten, 3-5yrs, cut-off 10 SFU
[20] = patient three, 6-10 yrs, cut-off 10.5 SFU
[21] = patient twelve, 11-17 yrs, cut-off 10 SFU
[22] = patient two, 3-5yrs, cut-off 10 SFU

LQPRPQPELPYPQP
IFN-γ ELISpot response [1]: 6 SFU | Significant response as percentage of maximal peptide SFU (patient D, max peptide 30.5 SFU): ′′′ (41-70% = ′′′) | IFN-γ ELISpot response [2]: 142 SFU | Significant response as percentage of maximal peptide SFU (patient E, max peptide 224 SFU): ′′′ (41-70% = ′′′) | IFN-γ ELISpot response [3]: 178 SFU | Significant response as percentage of maximal peptide SFU (patient F, max peptide 178 SFU): + (>70% = +) | IFN-γ ELISpot response [4]: 4 SFU | IFN-γ ELISpot response [5]: 45 SFU | IFN-γ ELISpot response [6]: 10 SFU | Significant response as percentage of maximal peptide SFU (patient H, max peptide 17 SFU): ′′′ (41-70% = ′′′) | IFN-γ ELISpot response [7]: 89 SFU | Significant response as percentage of maximal peptide SFU [8]: + (>70% = +) | Significant response as percentage of maximal peptide SFU (patient II, max peptide 15 SFU): ′′′ (41-70% = ′′′) | Significant response as percentage of maximal peptide SFU (patient J, max peptide 196 SFU): + (>70% = +) | Significant response as percentage of maximal peptide SFU (patient K, max peptide 53 SFU): ′′′ (41-70% = ′′′) | Significant response as percentage of maximal peptide SFU (patient L, max peptide 11 SFU): + (>70% = +) | Significant response as percentage of maximal peptide SFU (patient M, max peptide 48 SFU): + (>70% = +) | IFN-γ ELISpot response [9]: 7 SFU | IFN-γ ELISpot response [10]: 64 SFU | Significant response as percentage of maximal peptide SFU (patient P, max peptide 64 SFU): + (>70% = +) | IFN-γ ELISpot response [11]: 97 SFU | Significant response as percentage of maximal peptide SFU (patient Q, max peptide 97 SFU): + (>70% = +) | IFN-γ ELISpot response [12]: 81 SFU | Significant response as percentage of maximal peptide SFU (patient U, max peptide 81 SFU): + (>70% = +) | IFN-γ ELISpot response [13]: 30 SFU | Significant response as percentage of maximal peptide SFU (patient V, max peptide 35 SFU): + (>70% = +) | IFN-γ ELISpot response [14]: 11 SFU | Significant response as percentage of maximal peptide SFU (patient Y, max peptide 16 SFU): ′′′ (41-70% = ′′′) | IFN-γ ELISpot response [15]: 38 SFU | Significant response as percentage of maximal peptide SFU [16]: ′′′ (41-70% = ′′′) | Significant response as percentage of maximal peptide SFU (patient five, max peptide 48 SFU): + (>70% = +) | IFN-γ ELISpot response [17]: 24 SFU | Significant response as percentage of maximal peptide SFU (patient four, max peptide 44 SFU): ′′′ (41-70% = ′′′) | IFN-γ ELISpot response [18]: 6 SFU | IFN-γ ELISpot response [19]: 6 SFU | IFN-γ ELISpot response [20]: 146 SFU | IFN-γ ELISpot response [21]: 18 SFU | IFN-γ ELISpot response [22]: 36 SFU | Significant response as percentage of maximal peptide SFU (patient two, max peptide 60 SFU): ′′′ (41-70% = ′′′)

NPLQPEQPFPLQPQPP
Cross-reactive T cell response (subject A, 11-17yrs): 3 SFU | Significant response as a percentage of maximal peptide SFU (subject D, 11-17yrs): ′′ (21-40% = ′′) | Cross-reactive T cell response (subject D, 11-17yrs): 12 SFU | Significant response as a percentage of maximal peptide SFU (subject E, 11-17yrs): (6-10% - ^) | Cross-reactive T cell response (subject E, 11-17yrs): 21 SFU | Significant response as a percentage of maximal peptide SFU (subject F, 11-17yrs): ′ (11-20% = ′) | Cross-reactive T cell response (subject F, 11-17yrs): 25 SFU | Cross-reactive T cell response (subject G, 11-17yrs): 1 SFU | Significant response as a percentage of maximal peptide SFU (subject H, 11-17yrs): + (>70% = +) | Cross-reactive T cell response (subject H): 14 SFU | Cross-reactive T cell response (subject I (3-5yrs/6-10yrs part)): 1 SFU | Significant response as a percentage of maximal peptide SFU (subject J): ′ (11-20% = ′) | Cross-reactive T cell response (subject J (3-5yrs/6-10yrs part)): 38 SFU | Significant response as a percentage of maximal peptide SFU (subject K): ′′ (21-40% = ′′) | Cross-reactive T cell response (subject K (3-5yrs/6-10yrs part)): 19 SFU | Cross-reactive T cell response (subject P, 11-17yrs): 6 SFU | Significant response as a percentage of maximal peptide SFU (subject Q, 11-17yrs): ′′ (21-40% = ′′) | Cross-reactive T cell response (subject Q, 11-17yrs): 23 SFU | Significant response as a percentage of maximal peptide SFU (subject T, 11-17yrs): ′′ (21-40% = ′′) | Cross-reactive T cell response (subject T, 11-17yrs): 33 SFU | Cross-reactive T cell response (subject U, 11-17yrs): 9 SFU | Cross-reactive T cell response (subject V (3-5yrs/6-10yrs part)): 6 SFU | Cross-reactive T cell response (subject W (3-5yrs/6-10yrs part)): 7 SFU | Cross-reactive T cell response (subject Y (3-5yrs/6-10yrs part)): 3 SFU | Significant response as a percentage of maximal peptide SFU (subject five): ′′ (21-40% = ′′) | Cross-reactive T cell response (subject five (3-5yrs/6-10yrs part)): 14 SFU | Cross-reactive T cell response (subject nine, 11-17yrs): 1 SFU | Cross-reactive T cell response (subject seven (3-5yrs/6-10yrs part)): 4 SFU | Significant response as a percentage of maximal peptide SFU (subject six): + (>70% = +) | Cross-reactive T cell response (subject six (3-5yrs/6-10yrs part)): 13 SFU | Significant response as a percentage of maximal peptide SFU (subject ten): + (>70% = +) | Cross-reactive T cell response (subject ten (3-5yrs/6-10yrs part)): 11 SFU | Significant response as a percentage of maximal peptide SFU (subject two): ′ (11-20% = ′) | Cross-reactive T cell response (subject two (3-5yrs/6-10yrs part)): 10 SFU

PEQPFPEQPEQPF
IFN-γ ELISpot response [1]: 2 SFU | IFN-γ ELISpot response [2]: 14 SFU | Significant response as percentage of maximal peptide SFU (patient E, max peptide 224 SFU): (6-10% = ^) | IFN-γ ELISpot response [3]: 2 SFU | IFN-γ ELISpot response [4]: 2 SFU | IFN-γ ELISpot response [5]: 4 SFU | IFN-γ ELISpot response [6]: 9 SFU | IFN-γ ELISpot response [7]: 15 SFU | Significant response as percentage of maximal peptide SFU [8]: ′ (11-20% = ′) | Significant response as percentage of maximal peptide SFU (patient J, max peptide 196 SFU): ′ (11-20% = ′) | Significant response as percentage of maximal peptide SFU (patient K, max peptide 53 SFU): ′′ (21-40% = ′′) | IFN-γ ELISpot response [9]: 0 SFU | IFN-γ ELISpot response [10]: 10 SFU | IFN-γ ELISpot response [11]: 11 SFU | Significant response as percentage of maximal peptide SFU (patient Q, max peptide 97 SFU): ′ (11-20% = ′) | IFN-γ ELISpot response [12]: 5 SFU | IFN-γ ELISpot response [13]: 3 SFU | IFN-γ ELISpot response [14]: 2 SFU | IFN-γ ELISpot response [15]: 12 SFU | Significant response as percentage of maximal peptide SFU [16]: ′′ (21-40% = ′′) | IFN-γ ELISpot response [17]: 4 SFU | Significant response as percentage of maximal peptide SFU (patient nine, max peptide 10 SFU): + (>70% = +) | IFN-γ ELISpot response [18]: 5 SFU | IFN-γ ELISpot response [19]: 11 SFU | Significant response as percentage of maximal peptide SFU (patient ten, max peptide 14.5 SFU): + (>70% = +) | IFN-γ ELISpot response [20]: 24 SFU | IFN-γ ELISpot response [21]: 1 SFU | IFN-γ ELISpot response [22]: 9 SFU
